Counter-ions that a name gives are not always drawn.

Series [1] can be described thus: Hygroscopicity at 92% relative humidity. It is filed as physicochemical. The conditions noted are these: room temperature, up to 37 days.
The conditions of series [2]: human, in vivo.
The nature of series [3]: Solid state chemical stability on storage at elevated temperature and relative humidity. It is filed as physicochemical. The conditions noted are these: for BPPF% / mono(POC) PMPA fumarate% / bis(POC) PMPA citrate% / mono(POC) PMPA citrate%: 0 days; for mono(POC) PMPA fumarate%: degradation product in stored BPPF. From the text:
The solid state chemical stability of cBPPF and bis(POC)PMPA·citrate salt was compared by analyzing each compound after storage under different conditions.

For the compound “9-[2-(R)-[[bis[[(isopropoxycarbonyl)oxy]methoxy] phosphinoyl]methoxy]propyl]-adenine•fumaric acid (1:1) [BPPF]”, the hygroscopicity entry in series [1] is listed as “not hygroscopic”. Also, the oral bioavailability in series [2] is 30-40%. In series [3] (40°C, 75% relative humidity), the BPPF% is 99.0% and the “mono(POC) PMPA fumarate%” value is listed as 1.0%. In series [3] (60°C, 75% relative humidity), the BPPF% was 99.0% and the “mono(POC) PMPA fumarate%” value is 1.0%. Also, the “solid state chemical stability compared with bis(POC)PMPA citrate salt” value in series [3] (storage at elevated temperature and relative humidity) was “more stable”.

As for `CC(C)OC(=O)OCOP(=O)(CO[C@H](C)Cn1cnc2c(N)ncnc21)OCOC(=O)OC(C)C` [bis(POC) PMPA citrate], the “bis(POC) PMPA citrate%” value in series [3] (40°C, 75% relative humidity) was 99.0%; in series [3] (60°C, 75% relative humidity), 99.0%. The “mono(POC) PMPA citrate%” value amounted to 1.0% in series [3] (40°C, 75% relative humidity, degradation product in stored citrate salt) and 1.0% in series [3] (60°C, 75% relative humidity, degradation product in stored citrate salt). In addition, the remaining at 336 h in series [3] (solid, 75% rh, 40°C, 75% relative humidity, 14 days, read-out: bis(POC) PMPA citrate%) is 96.9%. Besides, in series [3] (solid, 75% rh, 40°C, 75% relative humidity, 30 days, read-out: bis(POC) PMPA citrate%), the remaining at 720 h came to 92.9%. For the same compound, the remaining at 1440 h in series [3] (solid, 75% rh, 40°C, 75% relative humidity, 60 days, read-out: bis(POC) PMPA citrate%) came out at 77.6%. Moreover, the remaining at 72 h in series [3] (solid, 75% rh, 60°C, 75% relative humidity, 3 days, read-out: bis(POC) PMPA citrate%) is 24%. Moreover, the remaining at 168 h in series [3] (solid, 75% rh, 60°C, 75% relative humidity, 7 days, read-out: bis(POC) PMPA citrate%) was 6.7%. The degraded at 336 h in series [3] (solid, 40°C, 75% relative humidity, 14 days, degradation product in stored citrate salt, read-out: mono(POC) PMPA citrate%) stood at 3.1%. Further, in series [3] (solid, 40°C, 75% relative humidity, 30 days, degradation product in stored citrate salt, read-out: mono(POC) PMPA citrate%), the degraded at 720 h stood at 7.1%. In addition, the degraded at 1440 h in series [3] (solid, 40°C, 75% relative humidity, 60 days, degradation product in stored citrate salt, read-out: mono(POC) PMPA citrate%) was 22.4%. In addition, the degraded at 72 h in series [3] (solid, 60°C, 75% relative humidity, 3 days, degradation product in stored citrate salt, other products were generated in addition, read-out: mono(POC) PMPA citrate%) turned out to be 58.9%. For the same compound, the degraded at 168 h in series [3] (solid, 60°C, 75% relative humidity, 7 days, degradation product in stored citrate salt, other products were generated in addition, read-out: mono(POC) PMPA citrate%) was found to be 76.2%.

The values are drawn from patent EP1243590A2, “Nucleotide analog composition and synthesis method” (GILEAD SCIENCES, INC., priority 1997, dated 1999).
